According to patent US11365177B2, “Chemical uncouplers of respiration and methods of use thereof” (Dana-Farber Cancer Institute, Inc., priority 2017, dated 2022):
Peptide text beside a SMILES is read from it. * marks the point of attachment. Oleoyl = CCCCCCCC/C=C\CCCCCCCC(=O)*

system: C2C12 cells; experiment: Measurement of cellular respiration (Seahorse), uncoupling bioactivity; format: cell-based; conditions: Mus musculus, Table 2, various head groups, 50 μM compound, maximal increase versus basal oligomycin-treated respiration, means SEM, n=3-6/group, read-out: % stimulation of respiration (baseline = 100%)
Protocol: Oligomycin was purchased from EMD Millipore, and FCCP and rotenone were purchased from Sigma. C2C12 cells were seeded at 35,000 cells/well in an XF24 cell culture microplate (V7-PS, Seahorse Bioscience) and analyzed the following day. On the day of analysis, the cells were washed once with Seahorse respiration buffer (8.3 g/l DMEM, 1.8 g/l NaCl, 1 mM pyruvate, 20 mM glucose, pen/strep), placed in 0.5 ml Seahorse respiration buffer, and incubated in a CO2-free incubator for 1 h. Port injection solutions were prepared as follows (final concentrations in assay in parentheses): 10 μM oligomycin (1 μM final), 500 μM indicated compound (50 μM final), 2 μM FCCP (0.2 μM final), and 30 μM rotenone (3 μM final). The Seahorse program was run as follows: basal measurement, 3 cycles; inject port A (oligomycin), 3 cycles; inject port B (compounds), 8 cycles; inject port C (FCCP), 3 cycles; inject port D (rotenone), 3 cycles. Each cycle consisted of mix 2 min, wait 0 min, and measure 2 min. For data expressed as a percentage of oligomycin-treated basal, the respiration at cycle 6 was normalized to 100%, and the maximum respiration at any time point between cycles 7 and 15 inclusive was used.
Tables 1-4 show uncoupling bioactivity of compounds of the disclosure with different fatty acid side chains. Respiration in C2C12 cells is shown as maximal increases versus basal oligomycin-treated respiration, which is normalized to 100%. Data are shown as means SEM, n=3-6/group.

Row | SMILES | activity at 50 µM
1 | CCCCCCCC/C=C\CCCCCCCC(=O)N[C@@H](Cc1ccccc1)C(=O)O [Compound 1, Oleoyl-L-phenylalanine] | 161 ± 12%
2 | CCCCCCCC/C=C\CCCCCCCC(=O)N[C@H](Cc1ccccc1)C(=O)O [Compound 2, Oleoyl-D-phenylalanine] | 173 ± 9%
3 | CCCCCCCC/C=C\CCCCCCCC(=O)NCCc1ccccc1 [Compound 3, N-phenethyloleamide] | 104 ± 4%
4 | CCCCCCCC/C=C\CCCCCCCC(=O)N[C@@H](CC(C)C)C(=O)O [Compound 4, Oleoyl-L-leucine] | 178 ± 13%
5 | CCCCCCCC/C=C\CCCCCCCC(=O)N[C@H](C(=O)O)[C@@H](C)CC [Compound 5, Oleoyl-L-isoleucine] | 167 ± 14%
6 | CCCCCCCC/C=C\CCCCCCCC(=O)N[C@@H](CCC(N)=O)C(=O)O [Compound 6, Oleoyl-L-glutamine] | 164 ± 4%
7 | CCCCCCCC/C=C\CCCCCCCC(=O)N1CCC[C@H]1C(=O)O [Compound 7, Oleoyl-L-proline] | 182 ± 7%
8 | CCCCCCCC/C=C\CCCCCCCC(=O)N[C@@H](Cc1c[nH]c2ccccc12)C(=O)O [Compound 8, Oleoyl-L-tryptophan] | 147 ± 9%
9 | CCCCCCCC/C=C\CCCCCCCC(=O)N[C@@H](CCCCN)C(=O)O [Compound 9, Oleoyl-L-lysine] | 108 ± 4%
10 | CCCCCCCC/C=C\CCCCCCCC(=O)N[C@@H](Cc1ccc(O)cc1)C(=O)O [Compound 10, Oleoyl-L-tyrosine] | 105 ± 13%
11 | CCCCCCCC/C=C\CCCCCCCC(=O)N[C@@H](CCC(=O)O)C(=O)O [Compound 11, Oleoyl-L-glutamic acid] | 106 ± 7%
12 | CCCCCCCC/C=C\CCCCCCCC(=O)NCC(=O)NCC(=O)O [Compound 12, Oleoylglycylglycine] (Oleoyl-Gly-Gly-OH) | 206 ± 32%
13 | CCCCCCCC/C=C\CCCCCCCC(=O)NCCC(=O)O [Compound 13, 3-Oleamidopropanoic acid] | 185 ± 10%

same assay, conditions: Mus musculus, Table 3, various fatty acid side chains, 50 μM compound, maximal increase versus basal oligomycin-treated respiration, means SEM, n=3-6/group, read-out: % stimulation of respiration (baseline = 100%)

Row | SMILES | activity at 50 µM
14 | CCCCCCCCCCCC(=O)N[C@@H](Cc1ccccc1)C(=O)O [Compound 14, Dodecanoyl-L-phenylalanine] | 96 ± 4%
15 | CCCCCCCCCCCCCCCC(=O)N[C@@H](Cc1ccccc1)C(=O)O [Compound 15, Palmitoyl-L-phenylalanine] | 180 ± 20%
16 | CCCCCCCCCCCCCCCCCC(=O)N[C@@H](Cc1ccccc1)C(=O)O [Compound 16, Stearoyl-L-phenylalanine] | 148 ± 12%
17 | CCCCCCCCCCCCCCCCCCCC(=O)N[C@@H](Cc1ccccc1)C(=O)O [Compound 17, Icosanoyl-L-phenylalanine] | 95 ± 8%
18 | CCCCCCCCCCCCCCCCCCCCCC(=O)N[C@@H](Cc1ccccc1)C(=O)O [Compound 18, Docosanoyl-L-phenylalanine] | 100 ± 3%
19 | CCCCC/C=C\C/C=C\CCCCCCCC(=O)N[C@@H](Cc1ccccc1)C(=O)O [Compound 19, ((9Z,12Z)-Octadeca-9,12-dienoyl)-L-phenylalanine] | 218 ± 10%
20 | CCC/C=C\C/C=C\C/C=C\CCCCCCC(=O)N[C@@H](Cc1ccccc1)C(=O)O [Compound 20, ((8Z,11Z,14Z)-Octadeca-8,11,14-trienoyl)-L-phenylalanine] | 109 ± 12%
21 | CCCCCCCC/C=C/CCCCCCCC(=O)N[C@@H](Cc1ccccc1)C(=O)O [Compound 21, (E)-Octadec-9-enoyl-L-phenylalanine] | 107 ± 3%
22 | CCCCCCCCCCC/C=C\CCCCC(=O)N[C@@H](Cc1ccccc1)C(=O)O [Compound 22, (Z)-Octadec-6-enoyl-L-phenylalanine] | 110 ± 12%
23 | CCCCCC/C=C\CCCCCCCCCC(=O)N[C@@H](Cc1ccccc1)C(=O)O [Compound 23, (Z)-Octadec-11-enoyl-L-phenylalanine] | 115 ± 8%
24 | CCCCCCCC/C=C\CCCCCCCCCC(=O)N[C@@H](Cc1ccccc1)C(=O)O [Compound 24, (Z)-Icos-11-enoyl-L-phenylalanine] | 103 ± 3%
25 | CCCCC/C=C\C/C=C\C/C=C\C/C=C\CCCC(=O)N[C@@H](Cc1ccccc1)C(=O)O [Compound 25, ((5Z,8Z,11Z,14Z)-Icosa-5,8,11,14-tetraenoyl)-L-phenylalanine] | 200 ± 12%
26 | CC/C=C\C/C=C\C/C=C\C/C=C\C/C=C\CCCC(=O)N[C@@H](Cc1ccccc1)C(=O)O [Compound 26, ((5Z,8Z,11Z,14Z,17Z)-Icosa-5,8,11,14,17-pentaenoyl)-L-phenylalanine] | 259 ± 43%
27 | CC/C=C\C/C=C\C/C=C\C/C=C\C/C=C\C/C=C\CCC(=O)N[C@@H](Cc1ccccc1)C(=O)O [Compound 27, ((4Z,7Z,10Z,13Z,16Z,19Z)-Docosa-4,7,10,13,16,19-hexaenoyl)-L-phenylalanine] | 166 ± 11%

same assay, conditions: Mus musculus, Table 4, urea analogs, 50 μM compound, maximal increase versus basal oligomycin-treated respiration, means SEM, n=3-6/group, read-out: % stimulation of respiration (baseline = 100%)

Row | SMILES | activity at 50 µM
28 | CCCCCCCC/C=C\CCCCCCCCNC(=O)NCC(=O)O [Compound 28, (Z)-(Octadec-9-en-1-ylcarbamoyl)glycine] | 104 ± 3%
29 | CCCCCCCC/C=C\CCCCCCCCNC(=O)N[C@@H](Cc1ccccc1)C(=O)O [Compound 29, (Z)-(Octadec-9-en-1-ylcarbamoyl)-L-phenylalanine] | 97 ± 5%

same assay, conditions: Mus musculus, Table 5, cyclic head groups, 50 μM compound, maximal increase versus basal oligomycin-treated respiration, means SEM, n=3-6/group, read-out: % stimulation of respiration (baseline = 100%)

Row | SMILES | activity at 50 µM
30 | CCCCCCCC/C=C\CCCCCCCC(=O)N1CCCC[C@H]1C(=O)O [Compound 30, (S)-1-Oleoylpiperidine-2-carboxylic acid] | 174 ± 3%
31 | CCCCCCCC/C=C\CCCCCCCC(=O)N1Cc2ccccc2C[C@H]1C(=O)O [Compound 31, (S)-2-Oleoyl-1,2,3,4-tetrahydroisoquinoline-3-carboxylic acid] | 187 ± 19%
32 | CCCCCCCC/C=C\CCCCCCCC(=O)N1CCc2ccccc2C1C(=O)O (stereo not drawn) [Compound 32, 2-Oleoyl-1,2,3,4-tetrahydroisoquinoline-1-carboxylic acid] | 216 ± 17%
33 | CCCCCCCC/C=C\CCCCCCCC(=O)N1c2ccccc2C[C@H]1C(=O)O [Compound 35, (S)-1-Oleoylindoline-2-carboxylic acid] | 146 ± 5%
